We go through one compound from patent US9873705B2, “Vinylogous thioester compounds and methods of use” (THE TRUSTEES OF DARTMOUTH COLLEGE, priority 2015, dated 2018).

Structures are written as SMILES. “Also recorded” adds a separate entry of the source.

One assay relates to U87-MG cells. As to the kind of experiment: U87-MG viability with NAC pretreatment, alamarBlue. The format is cell-based, human. As to conditions: 2 hour pretreatment with 5 mM NAC, then 72 hours Y102. The protocol: The data for FIG. 6 was obtained as follows: U87-MG cells were plated at a concentration of 5,000 cells/well into 96-well plates and allowed to adhere overnight. The following day, cells were pretreated with 5 mM N-acetyl cysteine (NAC) or the equivalent volume of DMSO 2 h prior to treatment with Y102 at concentrations ranging from 0 to 20 μM for 72 h. Three hours prior to collection, alamarBlue (Thermo Scientific) was added to a final concentration of 5% v/v. AlamarBlue fluorescence was determined with a Spectramax M2 (Molecular Devices) plate reader at an excitation of 544 nm and an emission of 590 nm using SoftMax Pro 3 software. Results were plotted as a percentage compared to DMSO control using GraphPad Prism software (FIG. 6).

The subject of another assay is U251-MG. As to the kind of experiment: Glioblastoma cell growth, Alamar Blue, 3 or 7 days. The format is cell-based, human. As to conditions: 3.9×10^-8 M to 2×10^-5 M. The protocol: (§1) 1000 cells in logarithmic phase were seeded per well (96 well plates) on day zero. The cells were treated for either 3 (red) or 7 (blue) days at a concentration range between 3.9×10^-8 M and 2×10^-5 M. Growth was assayed by the Alamar Blue method.

The next assay concerns U-87-MG. As to the kind of experiment: Glioblastoma cell growth, Alamar Blue, 3 or 7 days. It counts as cell-based, human. The settings on record: 3.9×10^-8 M to 2×10^-5 M. The protocol:
as §1

For assay [1], the system named is mitochondria of U87-MG cells. The experiment in a line: Mitotracker Red CMXRos mitochondrial phenotype imaging. The format is cell-based, human. As to conditions: 24 h, 2 or 4 μM. The protocol:
To examine whether there was a change in the mitochondrial phenotype of cells following Y102 treatment, Mitotracker Red CMXRos, a fluorescent dye whose accumulation is dependent upon membrane […], was used.
The data for FIG. 7 was obtained as follows: U87-MG cells were plated on poly-L-lysine (Sigma) coated coverslips at a concentration of 50,000 cells/well in a 24-well plate and allowed to adhere overnight. Cells were treated for 24 h with DMSO, 2 μM Y102, 4 μM Y102, or 50 μM HCQ. 30 minutes prior to collection, cells were stained with 100 nM Mitotracker Red CMXRos (Cell Signaling Technology, red) in media at 37° C. Cells were fixed for 10 minutes with 4% methanol-free paraformaldehyde, permeabilized for 15 minutes with 0.5% Triton X-100, blocked with immunofluorescence buffer (2%[v/v] goat serum, 0.2%[v/v] Triton X-100 and 0.05%[w/v] sodium azide in PBS) for 1 h, and stained for 1 h at room temperature for the autophagy marker p62 using anti-p62/SQSTM-1 D-3 (Santa Cruz, 1:500, 1 h at room temperature). Following 3 washes with PBST, cells were stained with goat anti-mouse 488 (Jackson ImmunoResearch Laboratories) secondary antibody for 1 h (green; not shown). After an additional two washes with PBST, cell nuclei were stained with 0.33 μg/mL DAPI (Molecular Probes) for 5 minutes (blue). Coverslips were mounted on glass slides with ProLong Gold antifade medium. […]

Assay [2] has as its system ira2Δ yeast (NF1 deficient yeast). The experiment in a line: Yeast growth inhibition (dose response) assay, OD600. It counts as cell-based, Saccharomyces cerevisiae. The settings on record: isogenic yeast system; 0 to 100 μM, 18 h. The text has this:
A high-throughput screen was used to identify compounds that are synthetically lethal with NF1 loss (14). A synthetic lethal interaction occurs when loss of two genes due to genetic deletion or pharmacologic inhibition is nonlethal independently but is lethal in combination (FIG. 1) (17). The first gene lost is NF1, and the loss of the second gene is mimicked through treatment with the screened compounds. The screen used Saccharomyces cerevisiae lacking IRA2 (ira2Δ), a yeast homologue of NF1, as a model for NF1 loss. ira2Δ yeast have increased RAS-GTP, which in turn activates MAPK and PKA pathways that mimic the pathways that are increased in NF1 deficient Schwann cells (18). […]
Candidate compounds were screened in ira2Δ yeast cells to identify target compounds synthetically lethal to NF1 loss. Growth inhibition of yeast was measured using the optical density of yeast cultures treated with compounds compared to DMSO control (14).
Growth inhibition assays as described above were performed on ira2Δ yeast cells and NF1-deficient glioblastoma cells. […] Following 18 h treatment, OD600 was measured using a THERMOmax (Molecular Devices) microplate reader and SOFTmax Pro 4.3 LS software. […] AlamarBlue fluorescence was determined with a Spectramax M2 (Molecular Devices) plate reader at an excitation of 544 nm and an emission of 590 nm using SoftMax Pro 3 software. […]

In assay [3] the test system is mitochondrial marker Tom20 in U87-MG cells. The experiment in a line: Tom20 flow cytometry (mitochondrial fluorescence). The settings on record: 20 h, 2 or 2.75 μM. It counts as cell-based, human. The protocol: The data for FIG. 8 was obtained as follows: U87-MG cells were plated at a concentration of 500,000 cells/well in a 6-well plate and allowed to adhere overnight. Cells were treated for 4 h with DMSO, followed by a 20 h cotreatment with DMSO, 2 μM Y102, 2.75 μM Y102, or 50 μM HCQ. Following treatment, cells were harvested using 0.25% trypsin, rinsed with PBS, and fixed for 20 minutes at 4° C. using BD Cytofix/Cytoperm fixation and permabilization solution (BD Biosciences). Following 2 washes with BD Perm/Wash buffer (BD Biosciences), cells were stained for 30 minutes at 4° C. in the dark for the mitochondrial marker Tom20 using anti-Tom20 FL-145 (Santa Cruz, 1:200). Following an additional 2 washes with BD Perm/Wash buffer, cells were stained with goat anti-rabbit 488 (Jackson ImmunoResearch Laboratories) secondary antibody for 30 minutes at 4° C. in the dark. Cells were washed twice with BD Perm/Wash buffer, resuspended in 0.5 mL PBS, and filtered prior to analysis. The cells were transferred to flow cytometry tubes and analyzed using a MacsQuant VYB 8-color flow cytometer. Tom20 fluorescence was detected using the B1-A (FITC) channel. 35,000 events/sample were collected and cellular debris was gated out of the dataset. Histograms were generated using the FlowLogic flow cytometry analysis software package.

On to `Cn1cnnc1S/C=C/C(=O)c1ccc(F)cc1` [Y102], for which the “sensitivity to Y102 after NAC pretreatment” value with U87-MG cells is recorded as “reversed sensitivity to Y102; also recorded: rescued”. Further, in the assay on U251-MG, the “sensitivity of U251-MG (growth)” value was “sensitive”. Moreover, the “sensitivity of U-87-MG (growth)” value with U-87-MG is recorded as “sensitive”. Moreover, the “mitochondrial phenotype (Mitotracker Red CMXRos)” value in assay [1] was “altered mitochondrial phenotype; also recorded: perinuclear clustering of the mitochondria”; in assay [1] (listed as Y1022) it was “perinuclear accumulation of the mitochondria”. Also, the “sensitivity of NF1 deficient yeast (growth)” value in assay [2] was “selectively sensitive”. For the same compound, the “mitochondrial fluorescence / accumulation (Tom20)” value in assay [3] is on record as “increase in mitochondrial fluorescence; also recorded: accumulation of the mitochondria”.
